Assay results: patent US6090787A, “Antithrombotic agents” (Eli Lilly and Company, priority 1999, dated 2000)
Square brackets hold non-standard residues; d marks the D form. Peptide text beside a SMILES is read from it. dPip = O=C(O)[C@H]1CCCCN1; NEtG = CCNCC(=O)O

Assays:
human plasma [1] = experiment: Human plasma anticoagulation, activated partial thromboplastin time (APTT); settings: concentration required to double the APTT, linear extrapolation
Description: (§1) Dog plasma and rat plasma is obtained from conscious mixed-breed hounds (either sex, Hazelton-LRE, Kalamazoo, Mich., U.S.A.) or from anesthetized male Sprague-Dawley rats (Harlan Sprague-Dawley, Inc., Indianapolis, Ind., U.S.A.) by venipuncture into 3.8 percent citrate. Fibrinogen is prepared from in-date ACD human blood as the fraction I-2 according to previous procedures and specifications. Smith, Biochem. J., 185, 1-11 (1980); and Smith, et al., Biochemistry, 11, 2958-2967 (1972). Human fibrinogen is also purchased as 98 percent pure/plasmin free from American Diagnostica, Greenwich, Conn. Coagulation reagents ACTIN, Thromboplastin, and Human plasma are from Baxter Healthcare Corp., Dade Division, Miami, Fla. Bovine thrombin from Parke-Davis ([…], Mich.) is used for coagulation assays in plasma.
(§2) Coagulation assay procedures are as previously described. Smith, et al., Thrombosis Research, 50, 163-174 (1988). A CoAScreener coagulation instrument (American LABor, Inc.) is used for all coagulation assay measurements. The prothrombin time (PT) is measured by adding 0.05 mL saline and 0.05 mL Thromboplastin-C reagent to 0.05 mL test plasma. The activated partial thromboplastin time (APTT) is measured by incubation of 0.05 mL test plasma with 0.05 mL Actin reagent for 120 seconds followed by 0.05 mL CaCl2 (0.02 M). The thrombin time (TT) is measured by adding 0.05 mL saline and 0.05 mL thrombin (10 NIH units/mL) to 0.05 mL test plasma. The compounds of formula I are added to human or animal plasma over a wide range of concentrations to determine prolongation effects on the APTT, PT, and TT assays. Linear extrapolations are performed to estimate the concentrations required to double the clotting time for each assay.

Bovine trypsin = biological target: T1, Bovine trypsin (Bos taurus, UniProt P00760); experiment: Serine protease selectivity, Kass, trypsin chromogenic assay; format: biochemical; settings: apparent association constant
T1 construct: purchased Worthington Biochemicals, Freehold, N.J
T1 sequence (P00760 24-246): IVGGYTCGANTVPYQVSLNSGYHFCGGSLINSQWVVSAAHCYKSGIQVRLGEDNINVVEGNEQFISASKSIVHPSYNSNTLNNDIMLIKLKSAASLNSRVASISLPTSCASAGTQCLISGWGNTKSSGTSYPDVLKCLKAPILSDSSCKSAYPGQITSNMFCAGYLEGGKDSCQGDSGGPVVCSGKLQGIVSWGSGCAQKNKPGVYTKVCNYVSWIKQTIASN
Description: (§3) By substantially following the procedures described above for human thrombin, and using other human blood coagulation system serine proteases and proteases of the fibrinolytic system with the appropriate chromogenic substrates, identified below, selectivity of the compounds of the present invention with respect to the coagulation factor serine proteases and with respect to the fibrinolytic system serine proteases are evaluated as well as their substantial lack of interference with serine proteases of the fibrinolytic system. Thrombin inhibitors preferably should spare fibrinolysis induced by urokinase, tissue plasminogen activator (t-PA) and streptokinase. This would be important to the therapeutic use of such agents as an adjunct to streptokinase, t-PA or urokinase thrombolytic therapy and to the use of such agents as an endogenous fibrinolysis-sparing (with respect to t-PA and urokinase) antithrombotic agent. In addition to the lack of interference with the amidase activity of the fibrinolytic proteases, such fibrinolytic system sparing can be studied by the use of human plasma clots and their lysis by the respective fibrinolytic plasminogen activators.
(§4) Human factors X, Xa, IXa, XIa, and XIIa are purchased from Enzyme Research Laboratories, South Bend, Ind.; human urokinase from Leo Pharmaceuticals, Denmark; and recombinant activated Protein C (aPC) is prepared at Eli Lilly and Co. substantially according to U.S. Pat. No. 4,981,952 incorporated by reference herein in its entirety. Chromogenic substrates: N--Benzoyl--Ile--Glu--Gly--Arg--p--nitroanilide (for factor Xa); N--Cbz--D--Arg--Gly--Arg--p--nitroanilide (for factor IXa assay as the factor Xa substrate); Pyroglutamyl--Pro--Arg--p--nitroanilide (for Factor XIa and for aPC); H--D--Pro--Phe--Arg--p--nitroanilide (for factor XIIa); and Pyroglutamyl--Gly--Arg--p--nitroanilide (for urokinase); are purchased from KabiVitrum, Stockholm, Sweden, or from Midwest Biotech, Fishers, Indiana. Bovine trypsin is purchased from Worthington Biochemicals, Freehold, N.J., and human plasma kallikrein from Kabi Vitrum, Stockholm, Sweden. Chromogenic substrate H--D--Pro--Phe--Arg--p--nitroanilide for plasma kallikrein is purchased from Kabi Vitrum, Stockholm, Sweden. N--Benzoyl--Phe--Val--Arg--p--nitroanilide, the substrate for human thrombin and for trypsin, is synthesized according to procedures described above for the compounds of the present invention, using known methods of peptide coupling from commercially available reactants or purchased from Midwest Biotech, Fishers, Ind.

[2] = biological target: T2, tissue plasminogen activator (t-PA) (Homo sapiens, UniProt P00750); experiment: Fibrinolytic protease selectivity, Kass, t-PA chromogenic assay; format: biochemical; settings: apparent association constant
T2 construct: purchased American Diagnostica, Greenwich, Conn
T2 sequence (P00750 36-562): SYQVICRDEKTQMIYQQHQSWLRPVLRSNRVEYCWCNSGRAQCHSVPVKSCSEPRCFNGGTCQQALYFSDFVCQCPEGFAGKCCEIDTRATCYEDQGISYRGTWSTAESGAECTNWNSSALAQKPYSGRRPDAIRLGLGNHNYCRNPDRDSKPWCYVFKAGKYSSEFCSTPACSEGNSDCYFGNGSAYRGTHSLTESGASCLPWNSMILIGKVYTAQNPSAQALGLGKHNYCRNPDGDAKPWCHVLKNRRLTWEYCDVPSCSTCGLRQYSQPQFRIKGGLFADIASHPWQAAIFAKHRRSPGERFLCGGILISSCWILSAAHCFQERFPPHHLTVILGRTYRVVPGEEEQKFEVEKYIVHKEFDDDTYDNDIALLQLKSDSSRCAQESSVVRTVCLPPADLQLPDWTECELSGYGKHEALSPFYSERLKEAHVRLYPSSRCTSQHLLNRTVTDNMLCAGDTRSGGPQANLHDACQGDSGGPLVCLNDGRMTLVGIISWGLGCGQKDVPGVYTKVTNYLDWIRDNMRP
Description: as §3
(§5) Human plasmin is purchased from Boehringer Mannheim, Indianapolis, Indiana; nt-PA is purchased as single chain activity reference from American Diagnostica, Greenwich, Conn.; modified-t-PA6 (mt-PA6) is prepared at Eli Lilly and Company by procedure known in the art (See, Burck, et al., J. Biol. Chem., 265, […] (1990). Plasmin chromogenic substrate H--D--Val--Leu--Lys--p--nitroanilide and tissue plasminogen activator (t-PA) substrate H--D--Ile--Pro--Arg--p--nitroanilide are purchased from Kabi Vitrum, Stockholm, Sweden.

human plasma [3] = experiment: Human plasma anticoagulation, thrombin time (TT); settings: concentration required to double the thrombin time, linear extrapolation
Description: as §1, §2

factor Xa = biological target: T3, factor Xa (Homo sapiens, UniProt P00742); experiment: Serine protease selectivity, Kass, factor Xa chromogenic assay; format: biochemical; settings: apparent association constant
T3 construct: Human factors X, Xa, IXa, XIa, and XIIa are purchased from Enzyme Research Laboratories; purchased Enzyme Research Laboratories, South Bend, Ind
T3 sequence (P00742 235-488 limits assumed): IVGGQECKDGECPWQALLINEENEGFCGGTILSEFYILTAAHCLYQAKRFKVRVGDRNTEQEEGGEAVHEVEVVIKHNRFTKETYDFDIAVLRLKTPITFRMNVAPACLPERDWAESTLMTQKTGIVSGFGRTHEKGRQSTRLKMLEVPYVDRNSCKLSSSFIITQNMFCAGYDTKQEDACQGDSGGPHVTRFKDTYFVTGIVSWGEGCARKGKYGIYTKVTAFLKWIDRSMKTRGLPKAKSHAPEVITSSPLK
T3 sequence (P00742 41-179 partner limits assumed): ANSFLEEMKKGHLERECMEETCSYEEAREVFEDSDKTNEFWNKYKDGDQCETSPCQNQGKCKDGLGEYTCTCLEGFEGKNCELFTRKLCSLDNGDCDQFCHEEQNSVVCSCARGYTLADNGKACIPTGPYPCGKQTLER
Description: as §3, §4

human thrombin = biological target: T4, human thrombin (Homo sapiens, UniProt P00734); experiment: Inhibition of amidase activity of thrombin (Kass), chromogenic substrate; format: biochemical; settings: apparent association constant, mean over a range of concentrations
T4 construct: purified human thrombin, Enzyme Research Laboratories; purchased Enzyme Research Laboratories, South Bend, Indiana
Description: The assay is carried out by mixing 50 μL buffer (0.03 M Tris, 0.15 M NaCl, pH 7.4) with 25 μL of bovine thrombin or human thrombin solution (0.21 mg/mL of thrombostat bovine thrombin, Parke-Davis, or purified human thrombin, Enzyme Research Laboratories, South Bend, Indiana, at about 8 NIH units/mL, in the same buffer) and 25 μL of test compound in a solvent (in 50% aqueous methanol, v:v). The 150 μL of an aqueous solution of the chromogenic substrate (at 0.25 mg/mL) are added and the rates of hydrolysis of the substrate are measured by monitoring the reactions at 405 nm for the release of p-nitroaniline. Standard curves are constructed by plotting free thrombin concentration against hydrolysis rate. The hydrolysis rates observed with test compounds are then converted to "free thrombin" values in the respective assays by use of the standard curves. The bound thrombin (bound to test compound) is calculated by subtracting the amount of free thrombin observed in each assay from the known initial amount of thrombin used in the assay. The amount of free inhibitor in each assay is calculated by subtracting the number of moles of bound thrombin from the number of moles of added inhibitor (test compound).
The Kass value is the hypothetical equilibrium constant for the reaction between thrombin and the test compound (I). [formula]
Kass is calculated for a range of concentrations of test compounds and the mean value is reported in units of liter per mole.

human plasma [4] = experiment: Human plasma anticoagulation, prothrombin time (PT); settings: concentration required to double the PT, linear extrapolation
Description: as §1, §2

Human plasmin = biological target: T5, Human plasmin (Homo sapiens, UniProt P00747); experiment: Fibrinolytic protease selectivity, Kass, plasmin chromogenic assay; format: biochemical; settings: apparent association constant
T5 construct: Human plasmin is purchased from Boehringer Mannheim; purchased Boehringer Mannheim, Indianapolis, Indiana
T5 sequence (P00747 581-810 limits assumed): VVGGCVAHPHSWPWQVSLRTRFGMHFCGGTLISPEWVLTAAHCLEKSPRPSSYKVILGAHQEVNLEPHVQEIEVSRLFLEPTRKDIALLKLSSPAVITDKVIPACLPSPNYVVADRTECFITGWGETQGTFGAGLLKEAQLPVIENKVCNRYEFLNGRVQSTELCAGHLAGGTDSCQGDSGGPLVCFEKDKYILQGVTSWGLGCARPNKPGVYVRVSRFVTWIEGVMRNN
T5 sequence (P00747 97-580 partner limits assumed): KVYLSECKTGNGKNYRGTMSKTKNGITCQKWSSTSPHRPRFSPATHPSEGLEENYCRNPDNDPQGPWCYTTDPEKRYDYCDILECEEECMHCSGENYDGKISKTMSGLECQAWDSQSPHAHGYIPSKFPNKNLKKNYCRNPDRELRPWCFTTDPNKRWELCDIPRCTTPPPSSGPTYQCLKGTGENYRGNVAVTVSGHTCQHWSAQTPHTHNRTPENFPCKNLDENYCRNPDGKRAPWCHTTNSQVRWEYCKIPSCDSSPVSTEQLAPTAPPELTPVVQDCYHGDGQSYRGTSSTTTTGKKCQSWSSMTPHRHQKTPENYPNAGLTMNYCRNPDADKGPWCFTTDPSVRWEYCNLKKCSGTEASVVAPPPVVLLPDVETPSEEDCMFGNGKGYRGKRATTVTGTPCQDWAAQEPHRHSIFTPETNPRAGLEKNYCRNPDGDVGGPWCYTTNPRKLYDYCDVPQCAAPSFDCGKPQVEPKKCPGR
Description: as §3, §5

Enzyme Kass Trypsin (Bovine trypsin) [L/mol × 10^6] | Enzyme Kass t-PA [2] [L/mol × 10^6] | Enzyme Kass Xa (factor Xa) [L/mol × 10^6] | Enzyme Kass Human Thrombin (human thrombin) [L/mol × 10^6] | Enzyme Kass Plasmin (Human plasmin) [L/mol × 10^6] | SMILES | Human Plasma Anticoagulation 2 × Clotting time APTT (human plasma [1]) | Human Plasma Anticoagulation 2 × Clotting time TT (human plasma [3]) [ng/mL] | Human Plasma Anticoagulation 2 × Clotting time PT (human plasma [4])
0.48 | 0.001 | 0.051 | 0.83 | 0.015 | Cl.Cl.N=C(N)NCCC[C@@H](C=O)NC(=O)CN(CCC(=O)O)C(=O)[C@H]1CCCCN1 [Example 13, D--hPro--N(CH2 CH2 COOH)Gly--ArgH.2HCl] | 21,000 ng/mL | 800 | 27,000 ng/mL
2.4 | 0.004 | 0.084 | 34 | 0.045 | CCCN(CC(=O)N[C@H](C=O)CCCNC(=N)N)C(=O)[C@H]1CCCCN1.Cl.Cl [Example 3, D-homoprolyl-N-n-propylglycyl-L-argininal dihydrochloride] | 2,100 ng/mL | 77 | 2,000 ng/mL
1.1 | 0.001 | 0.47 | 5.1 | 0.34 | Cl.Cl.NC(N)=NCCC[C@@H](C=O)NC(=O)CN(CCc1ccccc1)C(=O)[C@H]1CCCN1 [Example 18, D--Pro--N(CH2 CH2 Ph)Gly--ArgH.2HCl] | 3,300 ng/mL | 170 | 3,900 ng/mL
1.3 | 0.005 | 0.039 | 33 | 0.013 | CCN(CC(=O)N[C@H](C=O)CCCNC(=N)N)C(=O)[C@H]1CCCCN1.Cl.Cl [Example 2, D-homoprolyl-N-ethylglycyl-L-argininal dihydrochloride] (H-[dPip]-[NEtG]-Arg-aldehyde) | 2,600 ng/mL | 160 | 5,000 ng/mL
0.99 | 0.001 | 0.078 | 1.8 | 0.020 | Cl.Cl.N=C(N)NCCC[C@@H](C=O)NC(=O)CN(CCCCC(=O)O)C(=O)[C@H]1CCCCN1 [Example 15, D--hPro--N(CH2 CH2 CH2 CH2 COOH)Gly--ArgH.2HCl] | 15,000 ng/mL | 670 | 21,000 ng/mL
0.55 | 0.0064 | 0.14 | 3.3 | 0.060 | Cc1ccccc1N(CC(=O)N[C@H](C=O)CCCN=C(N)N)C(=O)[C@H]1CCCCN1.Cl.Cl [Example 12, D--hPro--N(o--Me--Ph)Gly--ArgH.2HCl] | 4,900 ng/mL | 370 | 8,200 ng/mL
22 | 1.2 | 3.3 | 37 | 1.5 | CCS(=O)(=O)N[C@H](Cc1ccccc1)C(=O)N(C)CC(=O)N[C@H](C=O)CCCNC(=N)N.Cl.Cl [Example 16, N-(ethylsulfonyl)-D-phenylalanyl-N-methylglycyl-L-argininal dihydrochloride] | 1,200 ng/mL | 30 | 1,600 ng/mL
5.8 | 0.007 | 0.22 | 5.4 | 0.33 | Cl.Cl.NC(N)=NCCC[C@@H](C=O)NC(=O)CN(CCC1CCCCC1)C(=O)[C@H]1CCCCN1 [Example 10, D--hPro--N(cyclohexyl--CH2 CH2)Gly--ArgH.2HCl] | 4,100 ng/mL | 230 | 6,900 ng/mL
